# Laboratory results: US8785488B2 (Exelixis Patent Company LLC, priority 2009, dated 2014)
# Legend:
# human TGR5 (h-TGR5) = biological target: T1, human TGR5 (h-TGR5) (Homo sapiens, UniProt Q8TDU6); experiment: TGR5/CRE-Luciferiase Assay (HEK 293 hTGR5/CRE-Luc cells); type: cell-based; conditions: h-TGR5 CRE-Luc EC50, Table 1; read-out: CRE-Luc (EC50)
# T1 construct: expressed in transfected cells
# T1 sequence (Q8TDU6 1-330): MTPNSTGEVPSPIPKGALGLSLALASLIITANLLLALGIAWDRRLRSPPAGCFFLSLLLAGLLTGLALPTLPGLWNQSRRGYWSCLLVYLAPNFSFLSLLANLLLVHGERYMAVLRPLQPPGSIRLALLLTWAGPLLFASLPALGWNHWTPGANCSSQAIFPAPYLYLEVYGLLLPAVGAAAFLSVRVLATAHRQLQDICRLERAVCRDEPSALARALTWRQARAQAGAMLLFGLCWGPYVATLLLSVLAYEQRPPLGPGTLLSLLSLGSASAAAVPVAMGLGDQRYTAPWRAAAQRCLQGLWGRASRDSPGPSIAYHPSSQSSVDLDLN
# Method in brief: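 HEK293 cells stably carrying hTGR5 and a CRE-luciferase reporter were exposed to serially diluted compounds (diluted in DMEM with 5% DMSO) for 6 h. Cells were then lysed in luciferase buffer, luminescence was read, and EC50 values were derived from dose-response curves.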
# h-TGR5 = biological target: T2, h-TGR5 (Homo sapiens, UniProt Q8TDU6); experiment: TGR5 cAMP Assay using Cisbio cAMP Dynamic2 htrf kit (hTGR5CRE-luc HEK 293 cells); type: cell-based; conditions: h-TGR5 cAMP EC50, Table 1; read-out: cAMP (EC50)
# T2 construct: expressed in transfected cells
# T2 sequence (Q8TDU6 1-330): T1 sequence (Q8TDU6 1-330)
# Method: Compounds were diluted in DPBS with 5% DMSO (8-point serial dilution by half logs) in a 96-well plate and 1 μL was transferred to a 384-well assay plate in quadruplicate. The d2-cAMP and anti-cAMP Ab-cryptate stock solution were prepared as per the instructions in the Cisbio™ (Bedford, Mass.) kit. […] Cells were adjusted to 0.44×10^6 cells/ml followed by addition of IBMX to a final concentration of 0.5 mM. The cells were then mixed with d2-cAMP solution (7.1 mL cells+100 ul d2-cAMP) and 4000 cells (9 μL) were transferred to each well of the 384-well assay plate. Cells without d2-cAMP were added to eight wells as a negative control. The plate was covered and incubated at room temp for 30 min. Then 10 μL of Ab-cryptate solution was added to each well of the assay plate and incubated for 1 hr. The plate was read on an EnVision™ plate reader (Perkin-Elmer, Waltham, Mass.) and the DeltaF value was calculated as per the instructions in the Cisbio™ kit.
# In the following tables, EC50 values determined according to the TGR5 cAMP Assay described herein (cAMP); EC50 values determined according to the TGR5/CRE-Luciferiase Assay described herein (CRE-Luc). […] The following compounds in Tables 1 and 2 were made by using procedures described in the above Schemes and Examples, and, where applicable, by making any necessary substitutions of known materials that one skilled in the art would ordinarily understand how to do.
Compound,EC50 (human TGR5 (h-TGR5)) [nM],EC50 (h-TGR5) [nM]
"COc1cc(-n2c(C(C)(C)c3ccc(Cl)c(Cl)c3)cnc2SCc2ccc(C#CCNC(=N)N)c(C(=O)O)c2)ccc1F [2-(3-{[amino(imino)methyl]amino}prop-1-yn-1-yl)-5-[({5-[1-(3,4-dichlorophenyl)-1-methylethyl]-1-[4-fluoro-3-(methyloxy)phenyl]-1H-imidazol-2-yl}thio)methyl]benzoic acid]",100 to 1000,100 to 1000
"COc1cc(-n2c(C(C)(C)c3ccc(Cl)c(Cl)c3)cnc2SCc2ccc(CCCNC(=N)N)c(C(=O)O)c2)ccc1F [2-(3-{[amino(imino)methyl]amino}propyl)-5-[({5-[1-(3,4-dichlorophenyl)-1-methylethyl]-1-[4-fluoro-3-(methyloxy)phenyl]-1H-imidazol-2-yl}thio)methyl]benzoic acid]",100 to 1000,100 to 1000
"CCN(CC)CCS(=O)(=O)N1CCC(CSc2ncc(C(C)(C)c3ccc(Cl)c(Cl)c3)n2-c2ccc(F)cc2)CC1 [2-({4-[({5-[1-(3,4-dichlorophenyl)-1-methylethyl]-1-(4-fluorophenyl)-1H-imidazol-2-yl}thio)methyl]piperidin-1-yl}sulfonyl)-N,N-diethylethanamine]",100 to 1000,100 to 1000
"CC(C)(c1ccc(Cl)c(Cl)c1)c1cnc(CCc2c(F)cccc2Cl)n1-c1ccc(F)cc1 [2-[2-(2-chloro-6-fluorophenyl)ethyl]-5-[1-(3,4-dichlorophenyl)-1-methylethyl]-1-(4-fluorophenyl)-1H-imidazole]",100 to 1000,100 to 1000
COc1cc(C(C)(C)c2cnc(SCc3c(F)cc(C(C)(C)O)cc3Cl)n2-c2ccc(F)cc2)ccc1Cl [2-[3-chloro-4-({[5-{1-[4-chloro-3-(methyloxy)phenyl]-1-methylethyl}-1-(4-fluorophenyl)-1H-imidazol-2-yl]thio}methyl)-5-fluorophenyl]propan-2-ol],< 100,< 100
"CC(C)(c1ccc(Cl)c(Cl)c1)c1cnc(SCc2c(F)cc(C(=O)NCCS(=O)(=O)O)cc2F)n1-c1ccc(F)c(Cl)c1 [2-[({4-[({1-(3-chloro-4-fluorophenyl)-5-[1-(3,4-dichlorophenyl)-1-methylethyl]-1H-imidazol-2-yl}thio)methyl]-3,5-difluorophenyl}carbonyl)amino]ethanesulfonic acid]",< 100,< 100
"CC(C)(c1ccc(Cl)c(Cl)c1)c1cnc(SCc2ccc(C(=O)NCCS(=O)(=O)O)cc2F)n1-c1ccc(F)cc1 [2-[({4-[({5-[1-(3,4-dichlorophenyl)-1-methylethyl]-1-(4-fluorophenyl)-1H-imidazol-2-yl}thio)methyl]-3-fluorophenyl}carbonyl)amino]ethanesulfonic acid-sodium (1:1)]",100 to 1000,< 100
"COc1cc(-n2c(C(C)(C)c3ccc(Cl)c(Cl)c3)cnc2SCc2c(F)cc(C(=O)NCCS(=O)(=O)O)cc2F)ccc1F [2-[({4-[({5-[1-(3,4-dichlorophenyl)-1-methylethyl]-1-[4-fluoro-3-(methyloxy)phenyl]-1H-imidazol-2-yl}thio)methyl]-3,5-difluorophenyl}carbonyl)amino]ethanesulfonic acid]",< 100,< 100
COc1cc(-n2c(C(C)(C)c3ccc(S(N)(=O)=O)c(Cl)c3)cnc2SCc2ccc(Cl)c(-c3nnn[nH]3)c2)ccc1F [2-chloro-4-(1-{2-({[4-chloro-3-(1H-tetrazol-5-yl)phenyl]methyl}thio)-1-[4-fluoro-3-(methyloxy)phenyl]-1H-imidazol-5-yl}-1-methylethyl)benzenesulfonamide],100 to 1000,100 to 1000
"CC(C)(c1ccc(Cl)c(Cl)c1)c1cnc(SCc2ccc(C(=O)O)c(Cl)c2)n1-c1ccc(F)cc1 [2-chloro-4-[({5-[1-(3,4-dichlorophenyl)-1-methylethyl]-1-(4-fluorophenyl)-1H-imidazol-2-yl}thio)methyl]benzoic acid]",100 to 1000,100 to 1000
"CC(C)(c1ccc(S(N)(=O)=O)c(Cl)c1)c1cnc(SCc2ccc(Cl)c(-c3nnn[nH]3)c2)n1-c1ccc(F)c(F)c1 [2-chloro-4-{1-[2-({[4-chloro-3-(1H-tetrazol-5-yl)phenyl]methyl}thio)-1-(3,4-difluorophenyl)-1H-imidazol-5-yl]-1-methylethyl}benzenesulfonamide]",100 to 1000,100 to 1000

# More lines, now with the values ahead:
EC50 (human TGR5 (h-TGR5)) [nM],EC50 (h-TGR5) [nM],Compound
< 100,< 100,"COc1cc(C(C)(C)c2cnc(SCc3c(F)cc(CCCCCNC(=N)N)cc3F)n2-c2ccc(F)cc2)ccc1Cl [1-{5-[4-({[5-{1-[4-chloro-3-(methyloxy)pheny1]-1-methylethyl}-1-(4-fluorophenyl)-1H-imidazol-2-yl]thio}methyl)-3,5-difluorophenyl]pentyl}guanidine]"
< 100,100 to 1000,"CC(C)(c1ccc(Cl)c(Cl)c1)c1cnc(SCc2cc(S(N)(=O)=O)c(Cl)cc2Cl)n1-c1ccc(F)cc1 [2,4-dichloro-5-[({5-[1-(3,4-dichlorophenyl)-1-methylethyl]-1-(4-fluorophenyl)-1H-imidazol-2-yl}thio)methyl]benzenesulfonamide]"
< 100,< 100,COc1cc(C(C)(C)c2cnc(SCc3ccc(C#CCNC(=N)N)c(C(=O)O)c3)n2-c2ccc(F)cc2)ccc1Cl [2-(3-{[amino(imino)methyl]amino}prop-1-yn-1-yl)-5-({[5-{1-[4-chloro-3-(methyloxy)phenyl]-1-methylethyl}-1-(4-fluorophenyl)-1H-imidazol-2-yl]thio}methyl)benzoic acid]
< 100,100 to 1000,COc1cc(C(C)(C)c2cnc(SCc3ccc(CCCNC(=N)N)c(C(=O)O)c3)n2-c2ccc(F)cc2)ccc1Cl [2-(3-{[amino(imino)methyl]amino}propyl)-5-({[5-{1-[4-chloro-3-(methyloxy)phenyl]-1-methylethyl}-1-(4-fluorophenyl)-1H-imidazol-2-yl]thio}methyl)benzoic acid]
< 100,< 100,"CC(C)(c1ccc(Cl)c(Cl)c1)c1cnc(CCc2c(F)cc(C(=O)NCCS(=O)(=O)O)cc2Cl)n1-c1ccc(F)cc1 [2-({[3-chloro-4-(2-{5-[1-(3,4-dichlorophenyl)-1-methylethyl]-1-(4-fluorophenyl)-1H-imidazol-2-yl}ethyl)-5-fluorophenyl]carbonyl}amino)ethanesulfonic acid]"
< 100,< 100,COc1cc(C(C)(C)c2cnc(SCc3c(F)cc(C(=O)NCCS(=O)(=O)O)cc3Cl)n2-c2ccc(F)cc2)ccc1Cl [2-({[3-chloro-4-({[5-{1-[4-chloro-3-(methyloxy)phenyl]-1-methylethyl}-1-(4-fluorophenyl)-1H-imidazol-2-yl]thio}methyl)-5-fluorophenyl]carbonyl}amino)ethanesulfonic acid]
< 100,< 100,COc1cc(C(C)(C)c2cnc(SCc3c(F)cc(S(=O)(=O)NCCS(=O)(=O)O)cc3Cl)n2-c2ccc(F)cc2)ccc1Cl [2-({[3-chloro-4-({[5-{1-[4-chloro-3-(methyloxy)phenyl]-1-methylethyl}-1-(4-fluorophenyl)-1H-imidazol-2-yl]thio}methyl)-5-fluorophenyl]sulfonyl}amino)ethanesulfonic acid]
< 100,< 100,"COc1cc(C(C)(C)c2cnc(SCc3c(F)cc(C(=O)NCCS(=O)(=O)O)cc3F)n2-c2ccc(F)cc2)ccc1Cl [2-({[4-({[5-{1-[4-chloro-3-(methyloxy)phenyl]-1-methylethyl}-1-(4-fluorophenyl)-1H-imidazol-2-yl]thio}methyl)-3,5-difluorophenyl]carbonyl}amino) ethanesulfonic acid]"
< 100,< 100,"COc1cc(C(C)(C)c2cnc(SCc3c(F)cc(S(=O)(=O)NCCS(=O)(=O)O)cc3F)n2-c2ccc(F)cc2)ccc1Cl [2-({[4-({[5-{1-[4-chloro-3-(methyloxy)phenyl]-1-methylethyl}-1-(4-fluorophenyl)-1H-imidazol-2-yl]thio}methyl)-3,5-difluorophenyl]sulfonyl}amino)ethanesulfonic acid]"
< 100,< 100,COc1cc(C(C)(C)c2cnc(SCc3ccc(C(=O)NCCS(=O)(=O)O)cc3F)n2-c2ccc(F)cc2)ccc1Cl [2-({[4-({[5-{1-[4-chloro-3-(methyloxy)phenyl]-1-methylethyl}-1-(4-fluorophenyl)-1H-imidazol-2-yl]thio}methyl)-3-fluorophenyl]carbonyl}amino)ethanesulfonic acid]
